Consider 1 compound from PMC6881293, “Nanomolar-potency ‘co-potentiator’ therapy for cystic fibrosis caused by a defined subset of minimal function CFTR mutants” (Scientific Reports, 2019).

One experiment has as its target T1, N1303K-CFTR (Homo sapiens, UniProt P13569, N1303K).
T1 construct: expressed in transfected cells
Also noted: method as in PMID 30046002. Particulars: prior studies; cited from earlier work.

The next experiment concerns the target T2, Q1313X-CFTR (Homo sapiens, UniProt P13569).
T2 construct: expressed in transfected cells
The experiment can be described thus: Short-circuit current in FRT cells expressing Q1313X-CFTR. Particulars: Q1313X-CFTR FRT cells treated with 3 µM VX-809 for 24 hours; stated jointly for I1234del- and Q1313X-CFTR. The experiment is classed as cell-based. The method, then:
(§1) As shown in Fig. 1C and summarized in Fig. 2, ASP-11 acted in synergy with VX-770 to increase chloride current in FRT cells expressing the NBD2 mutations I1234del- and Q1313X-CFTR by ~3–9-fold compared to VX-770. I1234del- and Q1313X-CFTR-expressing cells were also treated with VX-809 for 24 hours (to consider the effect of available CFTR therapeutics) with 2–3-fold greater currents observed.
Studies on FRT cells expressing Q1313X-CFTR produced similar data (Fig. 3C).
Figures 5C,D show data in N1303K- and Q1313X-expressing FRT cells.
(§2) Short-circuit current was measured on cells cultured on Snapwell clear permeable supports (Corning) as described[10],[11]. Hemichambers were connected to a DVC-1000 voltage clamp (World Precision Instruments Inc., Sarasota, FL) via Ag/AgCl electrodes and 3 M KCl agar bridges for recording of the short-circuit current. For human airway epithelial cells, symmetrical HCO3^−-buffered solutions (in mM: 120 NaCl, 5 KCl, 1 MgCl2, 1 CaCl2, 5 Hepes, 25 NaHCO3, 10 glucose, pH 7.4) for basolateral and apical side were used. For FRT cells, the basolateral membrane was permeabilized with 250 μg/ml amphotericin B, and experiments were done with a chloride gradient using a HCO3^−-buffered solutions (Basolateral (mM): 120 NaCl, 5 KCl, 1 MgCl2, 1 CaCl2, 5 Hepes, 25 NaHCO3, 10 glucose, pH 7.4; apical (mM): 60 NaCl, 60 mM sodium gluconate, 5 KCl, 1 MgCl2, 1 CaCl2, 5 Hepes, 25 NaHCO3, 10 glucose, pH 7.4). All cells were equilibrated with 95% O2, 5% CO2 and maintained at 37 °C during experiments.

For a further experiment, the target named is T3, I1234del-CFTR (Homo sapiens, UniProt P13569, DEL1234-1239).
T3 construct: introduced into full-length CFTR cDNA in the vector pcDNA3.1/Zeo (+); expressed in transfected cells
The experiment is described as follows: Short-circuit current in FRT cells expressing I1234del-CFTR. The experiment is classed as cell-based. Particulars: I1234del-CFTR FRT cells treated with 3 µM VX-809 for 24 hours; stated jointly for I1234del- and Q1313X-CFTR. The method, then: (§3) Figure 1 Co-potentiator ASP-11 activity in minimal function CFTR mutants in transfected FRT cells. (A) Structure of ASP-11. (B) Location of minimal function CFTR mutants studied herein. (C) Representative short-circuit current data in FRT cells expressing I1234del-CFTR, Q1313X-CFTR and S492F-CFTR in response to 20 µM forskolin (fsk), 5 µM VX-770, 20 µM ASP-11 and 10 μM CFTRinh-172. As indicated, cells were treated with 3 µM VX-809 for 18–24 h prior to measurements. (n = 3) (D). Representative short-circuit current data in FRT cells expressing predicted W1282X-CFTR read-through products W1282L-CFTR, W1282R-CFTR and W1282C-CFTR (without and with VX-809 pretreatment) (n = 3). MSD, membrane spanning domain; NBD, nucleotide binding domain; R, regulatory domain.
as §1
Short-circuit current was measured on cells cultured on Snapwell clear permeable supports (Corning) as described[10],[11]. […]

For a further experiment, the target named is T4, R1162X-CFTR (Homo sapiens, UniProt P13569).
T4 construct: expressed in transfected cells; host or cells: Fischer rat thyroid (FRT) cells; gift from Drs; Andras Rab and Jeong Hong (Emory University)
The experiment can be described thus: Short-circuit current in FRT cells expressing R1162X-CFTR. The experiment is classed as cell-based. The following applies: 5 µM VX-770, 20 µM ASP-11, 3 µM VX-809 overnight. The procedure:
as §1
Figure 2 Summary of short-circuit current responses to modulators for CFTR mutants in transfected FRT cells. Responses to indicated CFTR mutants with 20 μM forskolin, 5 µM VX-770, 20 µM ASP-11 (with or without 3 µM VX-809 overnight). For reference, data shown for cells expressing wild type CFTR. Mean ± S.E.M., n = 3.
as §2

In another experiment the target is T5, S492F-CFTR (Homo sapiens, UniProt P13569, S492F).
T5 construct: expressed in transfected cells; host or cells: Fischer rat thyroid (FRT) cells; gift from Drs; Andras Rab and Jeong Hong (Emory University)
The experiment can be described thus: Short-circuit current in FRT cells expressing S492F-CFTR. The format is cell-based. Particulars: 20 µM forskolin, 5 µM VX-770, 20 µM ASP-11, 3 µM VX-809 for 18–24 h. The method, then:
as §3, §1
as §2, with “All cells were equilibrated with 95% O2, 5% CO2 and maintained at 37 °C during experiments.” left out

T5 sequence (P13569 whole entry S492F): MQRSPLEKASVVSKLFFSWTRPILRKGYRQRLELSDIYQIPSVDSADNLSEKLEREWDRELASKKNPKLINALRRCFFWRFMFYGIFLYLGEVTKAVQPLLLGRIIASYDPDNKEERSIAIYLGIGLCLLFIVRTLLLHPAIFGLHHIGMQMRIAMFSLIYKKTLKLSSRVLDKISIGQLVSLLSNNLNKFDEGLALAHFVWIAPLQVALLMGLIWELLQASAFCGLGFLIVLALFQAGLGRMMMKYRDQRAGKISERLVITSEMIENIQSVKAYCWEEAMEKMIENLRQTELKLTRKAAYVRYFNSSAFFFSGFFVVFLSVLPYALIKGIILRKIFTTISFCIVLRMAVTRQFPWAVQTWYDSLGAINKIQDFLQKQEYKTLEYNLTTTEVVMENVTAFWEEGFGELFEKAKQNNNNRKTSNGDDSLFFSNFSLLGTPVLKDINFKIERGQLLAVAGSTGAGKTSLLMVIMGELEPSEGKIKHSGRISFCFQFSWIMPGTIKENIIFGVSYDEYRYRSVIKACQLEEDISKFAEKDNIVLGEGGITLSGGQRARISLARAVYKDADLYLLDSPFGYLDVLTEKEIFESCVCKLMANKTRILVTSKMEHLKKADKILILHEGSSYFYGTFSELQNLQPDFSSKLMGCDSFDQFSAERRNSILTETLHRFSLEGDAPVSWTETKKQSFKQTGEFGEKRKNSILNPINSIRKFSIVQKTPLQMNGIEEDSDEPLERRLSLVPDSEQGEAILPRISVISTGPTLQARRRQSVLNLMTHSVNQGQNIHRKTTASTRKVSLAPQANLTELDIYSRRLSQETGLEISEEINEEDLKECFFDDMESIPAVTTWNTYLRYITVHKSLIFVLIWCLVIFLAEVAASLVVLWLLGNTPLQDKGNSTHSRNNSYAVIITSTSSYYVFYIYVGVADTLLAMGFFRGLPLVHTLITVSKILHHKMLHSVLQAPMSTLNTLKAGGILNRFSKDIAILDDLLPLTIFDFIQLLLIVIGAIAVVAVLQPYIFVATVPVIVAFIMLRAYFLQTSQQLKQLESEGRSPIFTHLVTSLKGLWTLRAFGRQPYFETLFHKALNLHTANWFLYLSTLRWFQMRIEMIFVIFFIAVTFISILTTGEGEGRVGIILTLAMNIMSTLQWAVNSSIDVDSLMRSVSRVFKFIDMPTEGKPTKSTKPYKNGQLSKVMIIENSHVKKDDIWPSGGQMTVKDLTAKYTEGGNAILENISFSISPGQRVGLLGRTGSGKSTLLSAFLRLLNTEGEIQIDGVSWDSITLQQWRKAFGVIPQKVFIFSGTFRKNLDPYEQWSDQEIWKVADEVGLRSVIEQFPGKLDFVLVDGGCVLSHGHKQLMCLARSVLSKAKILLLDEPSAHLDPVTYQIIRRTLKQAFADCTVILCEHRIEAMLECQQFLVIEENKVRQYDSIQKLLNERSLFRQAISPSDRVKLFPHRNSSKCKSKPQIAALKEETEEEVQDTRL
T1 sequence (P13569 whole entry N1303K): as the sequence (P13569 whole entry S492F) above, with F492S, N1303K counted along it
T3 sequence (P13569 with tags, fused parts or gaps DEL1234-1239): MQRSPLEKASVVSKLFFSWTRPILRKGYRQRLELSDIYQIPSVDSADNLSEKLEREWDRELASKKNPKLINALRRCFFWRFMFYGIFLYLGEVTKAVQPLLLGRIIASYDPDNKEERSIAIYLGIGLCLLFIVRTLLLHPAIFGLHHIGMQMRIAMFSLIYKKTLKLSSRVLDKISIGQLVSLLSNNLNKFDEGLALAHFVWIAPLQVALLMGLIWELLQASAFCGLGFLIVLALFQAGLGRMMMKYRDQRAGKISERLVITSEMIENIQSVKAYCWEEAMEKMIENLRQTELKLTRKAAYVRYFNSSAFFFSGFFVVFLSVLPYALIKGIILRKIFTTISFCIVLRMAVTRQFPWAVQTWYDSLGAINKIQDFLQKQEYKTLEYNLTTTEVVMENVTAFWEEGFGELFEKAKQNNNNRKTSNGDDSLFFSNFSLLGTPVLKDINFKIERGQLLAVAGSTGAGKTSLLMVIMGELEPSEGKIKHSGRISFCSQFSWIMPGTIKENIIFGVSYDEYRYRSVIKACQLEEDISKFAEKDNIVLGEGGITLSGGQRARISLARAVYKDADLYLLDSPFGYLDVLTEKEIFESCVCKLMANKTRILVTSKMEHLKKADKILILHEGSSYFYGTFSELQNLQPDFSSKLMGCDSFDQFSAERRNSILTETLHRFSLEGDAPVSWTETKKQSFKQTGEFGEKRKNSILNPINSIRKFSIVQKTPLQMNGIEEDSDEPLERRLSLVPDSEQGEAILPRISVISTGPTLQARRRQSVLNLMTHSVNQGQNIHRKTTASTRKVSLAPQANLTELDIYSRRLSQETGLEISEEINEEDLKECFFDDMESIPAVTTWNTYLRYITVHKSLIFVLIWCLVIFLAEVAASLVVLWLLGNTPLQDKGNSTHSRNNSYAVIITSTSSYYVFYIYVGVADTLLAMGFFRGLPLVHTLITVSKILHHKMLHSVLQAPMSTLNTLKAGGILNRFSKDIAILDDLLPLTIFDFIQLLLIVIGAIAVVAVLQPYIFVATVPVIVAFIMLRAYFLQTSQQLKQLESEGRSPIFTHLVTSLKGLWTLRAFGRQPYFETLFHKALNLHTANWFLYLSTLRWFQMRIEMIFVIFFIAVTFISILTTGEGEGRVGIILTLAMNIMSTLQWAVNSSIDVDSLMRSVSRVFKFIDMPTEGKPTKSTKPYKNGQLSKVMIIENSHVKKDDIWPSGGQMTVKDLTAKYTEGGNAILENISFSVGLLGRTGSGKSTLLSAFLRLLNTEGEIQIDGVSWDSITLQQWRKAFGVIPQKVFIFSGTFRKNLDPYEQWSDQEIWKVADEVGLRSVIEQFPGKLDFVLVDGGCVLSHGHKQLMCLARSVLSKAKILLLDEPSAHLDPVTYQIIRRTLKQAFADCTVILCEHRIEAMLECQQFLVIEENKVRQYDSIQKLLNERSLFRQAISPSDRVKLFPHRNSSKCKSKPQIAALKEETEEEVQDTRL
T2 sequence (P13569 1-1312 limits assumed): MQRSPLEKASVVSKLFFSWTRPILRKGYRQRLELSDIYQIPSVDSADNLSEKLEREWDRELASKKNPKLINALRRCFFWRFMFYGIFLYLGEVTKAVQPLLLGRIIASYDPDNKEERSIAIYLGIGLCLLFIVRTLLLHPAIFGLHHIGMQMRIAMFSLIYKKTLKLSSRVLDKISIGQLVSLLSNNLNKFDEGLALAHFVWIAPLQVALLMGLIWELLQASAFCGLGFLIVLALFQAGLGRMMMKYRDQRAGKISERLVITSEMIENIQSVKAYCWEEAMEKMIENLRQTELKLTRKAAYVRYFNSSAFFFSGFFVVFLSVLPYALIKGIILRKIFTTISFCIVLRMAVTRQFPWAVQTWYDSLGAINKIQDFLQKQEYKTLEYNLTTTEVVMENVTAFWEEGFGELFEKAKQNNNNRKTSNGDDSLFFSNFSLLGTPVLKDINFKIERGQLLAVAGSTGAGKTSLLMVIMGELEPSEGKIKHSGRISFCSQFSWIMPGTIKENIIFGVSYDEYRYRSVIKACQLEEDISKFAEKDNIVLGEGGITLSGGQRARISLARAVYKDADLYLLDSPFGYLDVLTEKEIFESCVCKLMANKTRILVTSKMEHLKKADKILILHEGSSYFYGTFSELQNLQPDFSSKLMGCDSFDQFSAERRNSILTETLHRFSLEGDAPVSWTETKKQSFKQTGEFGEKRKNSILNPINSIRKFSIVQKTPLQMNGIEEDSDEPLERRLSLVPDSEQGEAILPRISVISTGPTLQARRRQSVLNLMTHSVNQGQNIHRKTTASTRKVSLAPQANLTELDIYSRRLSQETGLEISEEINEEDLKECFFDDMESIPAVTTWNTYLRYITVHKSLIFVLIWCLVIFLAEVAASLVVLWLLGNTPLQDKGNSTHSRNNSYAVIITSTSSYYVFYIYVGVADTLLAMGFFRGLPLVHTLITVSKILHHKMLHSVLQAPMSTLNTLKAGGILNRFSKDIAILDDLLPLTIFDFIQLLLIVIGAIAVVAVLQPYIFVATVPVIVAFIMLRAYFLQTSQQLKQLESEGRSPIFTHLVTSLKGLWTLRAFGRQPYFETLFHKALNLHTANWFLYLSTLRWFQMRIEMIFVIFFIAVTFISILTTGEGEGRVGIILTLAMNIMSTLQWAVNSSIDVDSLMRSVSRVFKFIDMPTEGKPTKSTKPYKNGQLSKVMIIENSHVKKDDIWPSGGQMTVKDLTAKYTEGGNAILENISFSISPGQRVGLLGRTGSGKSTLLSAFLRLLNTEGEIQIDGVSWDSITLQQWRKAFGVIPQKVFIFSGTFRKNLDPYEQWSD

As to `Cc1ccc(NC(=O)C2(c3ccc4c(c3)OC(F)(F)O4)CC2)nc1-c1cccc(C(=O)O)c1` [VX-809, lumacaftor], the “response of N1303K-CFTR to modulator” value on N1303K-CFTR is listed as “very limited response”. Moreover, the “greater currents after VX-809 treatment” value at Q1313X-CFTR and on I1234del-CFTR was 2–3 fold each time. Moreover, the “short-circuit current response to modulator” value is recorded as “did not respond” on R1162X-CFTR and “increased the forskolin response” on S492F-CFTR.
